# Results as given in patent publication US9315490B2, “2,5-substituted pyrimidines” (Grünenthal GmbH, priority 2014, dated 2016).
# Target: T1, human PDE4B1 (Homo sapiens, UniProt Q07343)
# T1 construct: host or cells: Sf9 cells
# Assay: TR-FRET assay using the LANCE Ultra cAMP kit to determine the activity of hPDE4B1
# Format: biochemical
# Details: for inhibition at 1 µM / inhibition at 10 µM: read-out: Inhibition in % (inhibition of PDE4B); for inhibition at 10 µM: test concentration 10 μM (marked in cell)
# Source text: TR-FRET Assay Using the LANCE® Ultra cAMP Kit to Determine the Activity of hPDE4B1
# The effects of the compounds on the activity of the human PDE4B1 was quantified by measuring the production of 5′AMP from cAMP using a human recombinant enzyme expressed in Sf9 cells and the LANCE® Ultra cAMP kit, a TR-FRET detection method from PerkinElmer. The human PDE4B1 enzyme was purchased from SignalChem Lifesciences (Catalog# P92-31BG, Lot# H296-2).
# The test compound, reference compound or water (control) was mixed with the enzyme (0.96 U) in a reaction buffer containing 50 mM Tris-HCl, 50 mM MgCl2 and 5 mM DTT (pH 8.5). Thereafter, the reaction was initiated by addition of 500 nM cAMP (substrate) and the mixture was incubated for 30 minutes at room temperature. For control basal measurements, the enzyme was omitted from the reaction mixture. After 30 minutes, the reaction was stopped and diluted by a factor of 100 with the reaction buffer supplemented with 500 μM IBMX. The fluorescence donor (europium chelate-labeled cAMP) and the fluorescence acceptor (anti-cAMP antibody labeled with the ULight™ dye) were then added together with 500 μM IBMX to a 10 μl aliquot. After 60 minutes, the fluorescence transfer corresponding to the amount of residual cAMP was measured at λex=337 nm, λem=620 nm and λem=665 nm using a microplate reader (PHERAstar, BMG). The enzyme activity was determined by dividing the signal measured at 665 nm by that measured at 620 nm (ratio) multiplied by 10000. The results were expressed as percent inhibition of the control enzyme activity. IC50 values (IC50=concentration causing a half-maximal inhibition of control specific activity) were derived from dose response measurements with ten different concentrations (n=3; N=1-3).
# T1 sequence (Q07343 whole entry): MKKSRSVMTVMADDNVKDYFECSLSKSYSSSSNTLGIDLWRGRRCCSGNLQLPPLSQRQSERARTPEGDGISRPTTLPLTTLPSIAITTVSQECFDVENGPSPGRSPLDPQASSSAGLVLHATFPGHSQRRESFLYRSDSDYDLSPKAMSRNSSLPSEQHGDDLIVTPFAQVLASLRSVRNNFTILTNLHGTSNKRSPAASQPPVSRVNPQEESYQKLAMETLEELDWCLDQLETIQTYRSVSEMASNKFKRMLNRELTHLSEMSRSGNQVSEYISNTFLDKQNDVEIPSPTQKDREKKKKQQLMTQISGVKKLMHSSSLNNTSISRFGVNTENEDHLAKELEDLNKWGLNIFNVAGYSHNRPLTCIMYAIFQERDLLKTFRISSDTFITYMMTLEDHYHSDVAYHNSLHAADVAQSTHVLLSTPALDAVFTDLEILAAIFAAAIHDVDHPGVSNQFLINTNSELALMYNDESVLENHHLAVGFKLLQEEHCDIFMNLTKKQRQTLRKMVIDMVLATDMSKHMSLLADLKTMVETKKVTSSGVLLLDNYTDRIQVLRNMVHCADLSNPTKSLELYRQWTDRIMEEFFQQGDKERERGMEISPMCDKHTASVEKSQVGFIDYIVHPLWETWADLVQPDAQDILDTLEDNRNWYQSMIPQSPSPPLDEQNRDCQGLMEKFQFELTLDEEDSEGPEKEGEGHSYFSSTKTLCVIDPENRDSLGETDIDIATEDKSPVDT
Structure (SMILES),inhibition at 1 µM (test concentration 1 μM) [%],further results
"COc1ccc(F)c(-c2cnc(-n3cc([S+](C)[O-])c4ccc(C(=O)N(C)C)cc43)nc2)c1 (stereo not shown) [Example 268, 1-(5-(2-Fluoro-5-methoxyphenyl)pyrimidin-2-yl)-N,N-dimethyl-3-(methylsulfinyl)-1H-indole-6-carboxamide]",95,
"Cc1cccc(-c2cnc(-n3cc([S+](C)[O-])c4ccc(C(=O)N5C[C@@H]6C[C@H]5CN6)cc43)nc2)n1 (stereo partly drawn) [Example 247, (1S,4S)-2,5-Diazabicyclo[2.2.1]heptan-2-yl(1-(5-(6-methylpyridin-2-yl)pyrimidin-2-yl)-3-(methylsulfinyl)-1H-indol-6-yl)methanone]",90,
"Cc1ccnc(-c2cnc(-n3cc([S+](C)[O-])c4ccc(C(=O)N5C[C@@H]6C[C@H]5CN6)cc43)nc2)c1 (stereo partly drawn) [Example 245, (1S,4S)-2,5-Diazabicyclo[2.2.1]heptan-2-yl(1-(5-(4-methylpyridin-2-yl)pyrimidin-2-yl)-3-(methylsulfinyl)-1H-indol-6-yl)methanone]",86,
"CCOc1ccnc(-c2cnc(-n3cc([S+](C)[O-])c4ccc(C(=O)N5CCOCC5)cc43)nc2)c1 (stereo not shown) [Example 260, (1-(5-(4-Ethoxypyridin-2-yl)pyrimidin-2-yl)-3-(methylsulfinyl)-1H-indol-6-yl)(morpholino)methanone]",95,
"CC(C)c1ccnc(-c2cnc(-n3cc([S+](C)[O-])c4ccc(C(=O)N5CCOCC5)cc43)nc2)c1 (stereo not shown) [Example 256, (1-(5-(4-Isopropylpyridin-2-yl)pyrimidin-2-yl)-3-(methylsulfinyl)-1H-indol-6-yl)(morpholino)methanone]",96,
"CCc1ccnc(-c2cnc(-n3cc([S+](C)[O-])c4ccc(C(=O)N(C)C)cc43)nc2)c1 (stereo not shown) [Example 278, 1-(5-(4-Ethylpyridin-2-yl)pyrimidin-2-yl)-N,N-dimethyl-3-(methylsulfinyl)-1H-indole-6-carboxamide]",92,
"Cc1ccnc(-c2cnc(-n3cc([S+](C)[O-])c4ccc(C(=O)N5CCCC5)cc43)nc2)c1 (stereo not shown) [Example 269, (1-(5-(4-Methylpyridin-2-yl)pyrimidin-2-yl)-3-(methylsulfinyl)-1H-indol-6-yl)(pyrrolidin-1-yl)methanone]",97,
"Cc1ccnc(-c2cnc(-n3cc(S(C)(=N)=O)c4ccc(C(=O)N5CCOCC5)cc43)nc2)c1 (stereo not shown) [Example 288, (1-(5-(4-Methylpyridin-2-yl)pyrimidin-2-yl)-3-(S-methylsulfonimidoyl)-1H-indol-6-yl)(morpholino)methanone]",92,
"CC(=O)Oc1ccc(F)c(-c2cnc(-n3cc([S+](C)[O-])c4ccc(C(=O)N5CCOCC5)cc43)nc2)c1 (stereo not shown) [Example 264, 4-Fluoro-3-(2-(3-(methylsulfinyl)-6-(morpholine-4-carbonyl)-1H-indol-1-yl)pyrimidin-5-yl)phenyl acetate]",94,
"CS(=O)(=O)c1cn(-c2ncc(-c3cc(Cl)ccn3)cn2)c2cc(C(=O)N3CCOCC3)ccc12 [Example 312, (1-(5-(4-Chloropyridin-2-yl)pyrimidin-2-yl)-3-(methylsulfonyl)-1H-indol-6-yl)(morpholino)methanone]",,inhibition at 10 µM: 93%
"CN(C)C(=O)c1ccc2c([S+](C)[O-])cn(-c3ncc(-c4cc(N)ccn4)cn3)c2c1 (stereo not shown) [Example 273, 1-(5-(4-Aminopyridin-2-yl)pyrimidin-2-yl)-N,N-dimethyl-3-(methylsulfinyl)-1H-indole-6-carboxamide]",91,
"CCNc1ccc(F)c(-c2cnc(-n3cc([S+](C)[O-])c4ccc(C(=O)N5CCOCC5)cc43)nc2)c1 (stereo not shown) [Example 292, (1-(5-(5-(Ethylamino)-2-fluorophenyl)pyrimidin-2-yl)-3-(methylsulfinyl)-1H-indol-6-yl)(morpholino)methanone]",,inhibition at 10 µM: 91%
"C[S+]([O-])c1cn(-c2ncc(-c3cc(C(C)(C)O)ccn3)cn2)c2cc(C(=O)N3CCOCC3)ccc12 (stereo not shown) [Example 289, (1-(5-(4-(2-Hydroxypropan-2-yl)pyridin-2-yl)pyrimidin-2-yl)-3-(methylsulfinyl)-1H-indol-6-yl)(morpholino)methanone]",93,
"CCOc1ccc(F)c(-c2cnc(-n3cc([S+](C)[O-])c4ccc(C(=O)N(C)CCO)cc43)nc2)c1 (stereo not shown) [Example 316, 1-(5-(5-Ethoxy-2-fluorophenyl)pyrimidin-2-yl)-N-(2-hydroxyethyl)-N-methyl-3-(methylsulfinyl)-1H-indole-6-carboxamide]",,inhibition at 10 µM: 98%
"C[S+]([O-])c1cn(-c2ncc(-c3ccccc3F)cn2)c2cc(C(=O)N3C[C@@H]4C[C@H]3CO4)ccc12 (stereo partly drawn) [Example 308, (1S,4S)-2-Oxa-5-azabicyclo[2.2.1]heptan-5-yl(1-(5-(2-fluorophenyl)pyrimidin-2-yl)-3-(methylsulfinyl)-1H-indol-6-yl)methanone]",,inhibition at 10 µM: 101%
"Cc1ccc(F)c(-c2cnc(-n3cc([S+](C)[O-])c4ccc(C(=O)N5C[C@@H]6C[C@H]5CN6)cc43)nc2)c1 (stereo partly drawn) [Example 249, (1S,4S)-2,5-Diazabicyclo[2.2.1]heptan-2-yl(1-(5-(2-fluoro-5-methylphenyl)pyrimidin-2-yl)-3-(methylsulfinyl)-1H-indol-6-yl)methanone]",93,
"CCc1ccc(F)c(-c2cnc(-n3cc([S+](C)[O-])c4ccc(C(=O)N(C)C)cc43)nc2)c1 (stereo not shown) [Example 274, 1-(5-(5-Ethyl-2-fluorophenyl)pyrimidin-2-yl)-N,N-dimethyl-3-(methylsulfinyl)-1H-indole-6-carboxamide]",104,
"Cc1cccc(-c2cnc(-n3cc([S+](C)[O-])c4ccc(C(=O)N(C)C)cc43)nc2)n1 (stereo not shown) [Example 314, N,N-Dimethyl-1-(5-(6-methylpyridin-2-yl)pyrimidin-2-yl)-3-(methylsulfinyl)-1H-indole-6-carboxamide]",,inhibition at 10 µM: 98%
"Cc1ccc(F)c(-c2cnc(-n3cc(S(C)(=O)=O)c4ccc(C(=O)N(C)CC(N)=O)cc43)nc2)c1 [Example 328, N-(2-Amino-2-oxoethyl)-1-(5-(2-fluoro-5-methylphenyl)pyrimidin-2-yl)-N-methyl-3-(methylsulfonyl)-1H-indole-6-carboxamide]",,inhibition at 10 µM: 89%
"Cc1ccnc(-c2cnc(-n3cc([S+](C)[O-])c4ccc(C(=O)N5CCOCC5)cc43)nc2)c1 (single isomer, unassigned) [Example 352, (1-(5-(4-Methylpyridin-2-yl)pyrimidin-2-yl)-3-(methylsulfinyl)-1H-indol-6-yl)(morpholino)methanone]",,"Inhibition in % (inhibition of PDE4B) (test concentration 1 μM, 1 µM): 95%"
"Cc1ccc(F)c(-c2cnc(-n3cc([S+](C)[O-])c4ccc(C(=O)N(C)CCO)cc43)nc2)c1 (stereo not shown) [Example 315, 1-(5-(2-Fluoro-5-methylphenyl)pyrimidin-2-yl)-N-(2-hydroxyethyl)-N-methyl-3-(methylsulfinyl)-1H-indole-6-carboxamide]",,inhibition at 10 µM: 97%
"CC#Cc1ccnc(-c2cnc(-n3cc([S+](C)[O-])c4ccc(C(=O)N5CCOCC5)cc43)nc2)c1 (stereo not shown) [Example 257, (3-(Methylsulfinyl)-1-(5-(4-(prop-1-yn-1-yl)pyridin-2-yl)pyrimidin-2-yl)-1H-indol-6-yl)(morpholino)methanone]",93,
"CN(CCCO)C(=O)c1ccc2c([S+](C)[O-])cn(-c3ncc(-c4ccccc4F)cn3)c2c1 (stereo not shown) [Example 307, 1-(5-(2-Fluorophenyl)pyrimidin-2-yl)-N-(3-hydroxypropyl)-N-methyl-3-(methylsulfinyl)-1H-indole-6-carboxamide]",82,
"CCN(C)C(=O)c1ccc2c([S+](C)[O-])cn(-c3ncc(-c4cc(C)ccn4)cn3)c2c1 (stereo not shown) [Example 271, N-Ethyl-N-methyl-1-(5-(4-methylpyridin-2-yl)pyrimidin-2-yl)-3-(methylsulfinyl)-1H-indole-6-carboxamide]",97,
"C[S+]([O-])c1cn(-c2ncc(-c3cc(C(C)(C)O)ccc3F)cn2)c2cc(C(=O)N3CCOCC3)ccc12 (stereo not shown) [Example 293, (1-(5-(2-Fluoro-5-(2-hydroxypropan-2-yl)phenyl)pyrimidin-2-yl)-3-(methylsulfinyl)-1H-indol-6-yl)(morpholino)methanone]",94,

# The next lines start with results.
inhibition at 1 µM (test concentration 1 μM) [%],Structure (SMILES),further results
54,"Cc1ccnc(-c2cnc(-n3cc(S(C)(=O)=O)c4ccc(C(=O)N5CCOCC5)cc43)nc2)c1 [Example 353, (1-(5-(4-Methylpyridin-2-yl)pyrimidin-2-yl)-3-(methylsulfonyl)-1H-indol-6-yl)(morpholino)methanone]",
98,"CCOc1ccc(F)c(-c2cnc(-n3cc(S(C)(=O)=O)c4ccc(C(=O)N5CCOCC5)cc43)nc2)c1 [Example 326, (1-(5-(5-Ethoxy-2-fluorophenyl)pyrimidin-2-yl)-3-(methylsulfonyl)-1H-indol-6-yl)(morpholino)methanone]",
92,"CN(C)C(=O)c1ccc2c([S+](C)[O-])cn(-c3ncc(-c4ccccn4)cn3)c2c1 (stereo not shown) [Example 313, N,N-Dimethyl-3-(methylsulfinyl)-1-(5-(pyridin-2-yl)pyrimidin-2-yl)-1H-indole-6-carboxamide]",
